Test results: patent US11806393B2, “Flavivirus peptide sequences, epitopes, and methods and uses thereof” (priority 2017, dated 2023)

How the values were obtained:
Type in all cases: cell-based, mouse
[1] = tested on: CD8+ T cells; assay: IFNγ ELISPOT, ZIKV-infected Ifnar-/- HLA-B*0702 transgenic mice; conditions: HLA-B*0702 mice; for SFC/10^6 CD8+ T cells, MR766: 7 days after 1×10^2 FFU ZIKV MR766
Procedure: (§1) Two ZIKV strains, MR766 (Uganda, 1947) and FSS13025 (Cambodia, 2010), were obtained from the World Reference Center for Emerging Viruses and Arboviruses (WRCEVA). The mouse-adapted DENV2 strain S221 is a triple-plaque purified clone derived from DENV2 D2S1038. Both ZIKV and DENV2 were amplified in C6/36 mosquito cells, and viral titers were measured using baby hamster kidney (BHK)-21 cell-based focus forming assay (FFA). For epitope screening, 5-week old mice (female or male) were infected retro-orbitally (R.O.) with either 1×102 FFU of ZIKV FSS13025 or ZIKV MR766, or 2×10^4 FFU of DENV2 S221 in 200 μl 10% FBS/PBS. Seven days after infection, CD8^+ T cells were isolated from splenocytes and used for ELISPOT assay, while the splenocytes were directly used for ICS assay. Additionally, 5-week old mice were inoculated I.P. with 2×10^3 FFU of DENV2 S221 for 4 weeks.
(§2) CD8^+ T cells were isolated from splenocytes using magnetic bead positive selection (Miltenyi Biotec, Germany) 7 days after virus infection. 2×10^5 CD8^+ T cells were stimulated with 1×10^5 LPS-blasts loaded with 10 μg of individual peptide in 96-well flat-bottom plates (IMMOBILON™-P; Millipore, Bedford, Mass.) that were coated with anti-IFNγ mAb (clone AN18; Mabtech, Stockholm, Sweden) in triplicate. Concanavalin A (ConA) was used as positive control. After 20 hours of incubation, biotinylated anti-mouse IFNγ mAb (R4-6A2; Mabtech), followed by ABC peroxidase (Vector Laboratories, Burlingame, Calif., USA) and then 3-amino-9-ethylcarbazole (Sigma-Aldrich, St. Louis, Mo., USA) were added into the wells. […] A peptide inducing a magnitude of >500 SFCs/10^6 CD8^+ T cells was considered as an immunodominant peptide.
Two independent experiments performed in triplicate were averaged and the error bars represent the SEM. The data are expressed as the mean number of spot forming cells (SFC) per 10^6 CD8^+ T cells. The criteria for positivity were net SFC per 10^6 cells of >20, and a stimulation index of >2.0 when compared with the negative control. Dotted lines represent the cutoff value. * Indicates a positive response. […] ConA denotes Concanavalin A.

[2] = tested on: CD8+ T cells; assay: IFNγ ELISPOT, DENV2 S221-infected Ifnar-/- HLA-B*0702 transgenic mice; conditions: HLA-B*0702 mice, 7 days after 2×10^4 FFU DENV2 S221
Procedure: as §1, §2
The following results are with respect to FIG. 14A and FIG. 14B, where Ifnar^−/− HLA-B*0702 transgenic mice were infected R.O. with 2×10^4 FFU of DENV2 strain S221 for 7 days. CD8^+ T cells isolated from splenocytes were stimulated with each of the 37 ZIKV epitopes identified via IFNγELISPOT to perform (FIG. 14A) IFNγELISPOT and (FIG. 14B) ICS assay. Data represent the average of two independent IFNγELISPOT experiments and two independent ICS experiments (n=7 mice) and are expressed as mean±SEM. Dotted line corresponds to the cutoff value. *, P<0.05.

[3] = tested on: CD44+ CD4+ T cells; assay: ICS, ZIKV SD001-infected Ifnar1-/- HLA-DRB1*0101 mice; conditions: for cytokines produced by ZIKV-primed CD4+ T cells on peptide stimulation: ZIKV SD001, day 7
Procedure: Ifnar1^−/− HLA-DRB1*0101 mice were infected retro-orbitally with 1×10^2 FFU of ZIKV strain SD001 for 7 days. Splenocytes were stimulated in vitro with the indicated ZIKV-derived HLA-DRB1*0101-binding peptides for 6 h, and the frequency of CD44^+ CD4^+ T cells producing IFNγ, TNF, or IFNγ plus TNF (A), IL-2 (B), and IL-17 (C) were detected using the ICS assay. Data represent the mean±s.e.m. of four independent experiments (n=3-5 mice/experiment; total 16 mice). *P<0.05, **P<0.01, ***P<0.001, ****P<0.0001 by two-tailed Mann-Whitney test. Negative and positive refer to cells incubated alone or with PMA/ionomycin, respectively. […]
(§3) For the 30-peptide epitope screen, 5-week-old female or male mice were infected retro-orbitally (r.o.) with either 1×10^2 focus-forming units (FFU) of ZIKV SD001 or 2×10^3 FFU of DENV2 S221 in 200 μl of 10% fetal bovine serum in phosphate-buffered saline (FBS/PBS). Seven days after infection, spleens were removed and single-cell splenocyte suspensions were prepared. A total of 1×10^6 splenocytes was plated in each well of a 96-well U-bottom plate and stimulated with individual peptides (20 μg crude peptide per well) for 6 h. One hour into the incubation, brefeldin A (GolgiPlug, BD Biosciences) was added to the cells. Positive and negative controls were splenocytes stimulated with phorbol-12-myristate-13-acetate (PMA, 0.1 μg/ml) and ionomycin (1 μg/ml) or incubated alone, respectively.
(§4) After incubation of splenocytes with peptides or PMA/ionomycin, cells were harvested, washed, and incubated with Fc Block (CD16/CD32 mAb 2.4G2, BD Biosciences), followed by staining with fixable Live/Dead blue viability stain (Life technologies) and the following antibodies: PerCP-Cy5.5-conjugated anti-CD3 mAb (clone 145-2C11, Tonbo), APC-eFluor780-conjugated anti-CD4 mAb (clone GK1.5, Invitrogen), Brilliant Violet (BV) 785-conjugated anti-CD44 mAb (clone IMT, Biolegend), PE-conjugated anti-CD11a (clone M17/4, Biolegend), BV605-conjugated anti-CD49d (clone 9C10(MFR4.B, Biolegend), PE-conjugated anti-CD25 mAb (clone PC61, Biolegend), PE-conjugated or biotin-conjugated anti-CD185 mAb (CXCR5, clone SPRC15; Invitrogen), BV 605-conjugated anti-[…] mAb (PD1, clone 29F.1A12; Biolegend), and/or BV 421-conjugated streptavidin (#405225, Biolegend). Cells were then fixed and permeabilized using Cytofix/Cytoperm solution (BD Biosciences), followed by staining with FITC-conjugated anti-IFNγ mAb (clone XMG1.2, Tonbo), Alexa Fluor 700- or APC-conjugated anti-TNF mAb (clone MP6-XT22, eBioscience), PE-, BV 421-, or BV 711-conjugated anti-IL-2 mAb (clone JES6-5H4, Biolegend), APC-conjugated anti-IL-4 mAb (clone 11B11, Biolegend), PE-conjugated anti-IL-5 mAb (clone TRFK5, eBioscience), BV510-conjugated anti-IL-17A mAb (clone 17B7, eBioscience), and/or Alexa Fluor 700-conjugated anti-FoxP3 mAb (clone FJK-16S, eBioscience). Data were collected using an LSR Fortessa flow cytometer (BD Biosciences) and analyzed using FlowJo software X 10.0.7 (Tree Star).

[4] = tested on: CD44+ CD4+ T cells; assay: ICS, naive or DENV2-immune Ifnar1-/- HLA-DRB1*0101 mice challenged with ZIKV; conditions: for CD4+ T cell response to peptide: DENV2-immune mice; for CD4+ T cell response to peptide / expansion of peptide-reactive CD4+ T cells: day 7 after ZIKV challenge; for expansion of peptide-reactive CD4+ T cells: naive mice
From the text: Ifnar1−/−HLA-DRB1*0101 mice were primed intraperitoneally with 2×103 FFU of DENV2 S221 for 4 weeks. Naïve mice and DENV2-immune mice were challenged retro-orbitally with 1×10^4 FFU of ZIKV strain SD001 for 3 or 7 days. Splenocytes were stimulated in vitro with the indicated ZIKV-specific and DENV2/ZIKV-cross-reactive epitopes. The frequency of CD44+ CD4+ T cells producing IFNγ, IFNγ plus TNF, or IL-2 were detected using the ICS assay. (E) The combined data for positive peptide responses in (FIGS. 27A-27D). Numbers in parentheses indicate the number of positive peptides. Data represent the mean±s.e.m. of three or four independent experiments, with a total of 9 mice/group for A and C, 14/group for B, and 15/group for D. *P<0.05, **P<0.01, ***P<0.001, ****P<0.0001 by two-tailed Mann-Whitney test. Negative and positive refer to cells incubated alone or with PMA/ionomycin, respectively.
Five-week-old female or male mice were inoculated intraperitoneally (i.p.) with 2×10^3 FFU of DENV2 S221. […] Positive and negative controls were included in all experiments.
as §4

[5] = tested on: CD44+ CD4+ T cells; assay: ICS, DENV2 S221-infected Ifnar1-/- HLA-DRB1*0101 mice; conditions: for cross-reactive response by DENV2-primed CD4+ T cells / cytokines produced by DENV2-primed CD4+ T cells on peptide stimulation: DENV2 S221, day 7
Procedure: Ifnar1^−/− HLA-DRB1*0101 mice were infected intraperitoneally with 2×10^3 FFU of DENV2 strain […] for 7 days. Splenocytes were stimulated in vitro with the indicated ZIKV-derived HLA-DRB1*0101-binding peptides for 6 h. The frequency of CD44^+ CD4^+ T cells producing IFNγ, TNF, or IFNγ plus TNF (A) or IL-2 (B) were detected using the ICS assay. Data represent the mean±s.e.m. of three independent experiments (n=3-4 mice/experiment; total 10 mice). *P<0.05, **P<0.01, ***P<0.001, ****P<0.0001 by two-tailed Mann-Whitney test. Negative and positive refer to cells incubated alone or with PMA/ionomycin, respectively.
as §3, §4

[6] = 7 days after ZIKV SD001, 6 h stimulation
[7] = 7 days after DENV2 S221, 6 h stimulation

Row | Sequence | SFC/10^6 CD8+ T cells, MR766 [1] | SFC/10^6 CD8+ T cells, S221 [2] | % CD4+ CD44+ T cells (ZIKV) INFγ+ [3, 6] | % CD4+ CD44+ T cells (ZIKV) INFγ+ TNFα+ [3, 6] | cytokines produced by ZIKV-primed CD4+ T cells on peptide stimulation [3] | identification as Th1 epitope (IFNγ, TNF, IL-2 ICS) ([3]; ZIKV-primed CD4+ T cells) | CD4+ T cell response to peptide [4] | expansion of peptide-reactive CD4+ T cells [4] | further results
1 | APTQGSASSL [FSS/MR-NS561-70] | 98 SFC/10^6 CD8+ T cells | 47 SFC/10^6 CD8+ T cells |  |  |  |  |  |  | 
2 | FGGLKRLPAGLLLGH [C27-41] |  |  | 0.191% | 0.1% | stimulated IFNγ, TNF, and IL-2 production | Th1 epitopes | increased responses | significant expansion | % CD4+ CD44+ T cells (ZIKV) IL-2+ [3, 6]: 0.08%
3 | FLRFTAIKPSLGLIN [C53-67] |  |  | 0.265% |  | produce only IFNγ | Th1 epitopes | increased responses |  | 
4 | GAAFGVMEALGTLPG [NS3601-NS4A12] |  |  | 0.203% | 0.102% | stimulated IFNγ plus TNF production | Th1 epitopes | increased responses | significant expansion | 
5 | GAAFKSLFGGMSWFS [E450-464] |  |  | 0.183% | 0.078% | stimulated IFNγ plus TNF production | Th1 epitopes | increased responses |  | 
6 | GPMPVTHASA [FSS/MR-NS3427-436] | 204 SFC/10^6 CD8+ T cells | 136 SFC/10^6 CD8+ T cells |  |  |  |  |  |  | SFC/10^6 CD8+ T cells, FSS13025 ([1]; 7 days after 1×10^2 FFU ZIKV FSS13025): 140 SFC/10^6 CD8+ T cells
7 | IKKFKKDLAAMLRII [C81-95] |  |  | 0.19% |  | produce only IFNγ | Th1 epitopes |  | significant expansion | identification as Th17 epitope (IL-17 ICS) ([3]; ZIKV-primed CD4+ T cells): Th17 epitope
8 | KPTVDIEL [FSS/MR-E38-45] | 103 SFC/10^6 CD8+ T cells | 51 SFC/10^6 CD8+ T cells |  |  |  |  |  |  | 
9 | LALIAAFKVRPALLV [NS2A66-80] |  |  | 0.167% | 0.058% | stimulated IFNγ plus TNF production | Th1 epitopes | increased responses | significant expansion | % CD4+ CD44+ T cells (DENV) INFγ+ [5, 7]: 0.39%; % CD4+ CD44+ T cells (DENV) INFγ+ TNFα+ [5, 7]: 0.343%; % CD4+ CD44+ T cells (DENV) TNFα+ [5, 7]: 0.199%; cross-reactive response by DENV2-primed CD4+ T cells [5]: elicited cross-reactive responses; cytokines produced by DENV2-primed CD4+ T cells on peptide stimulation [5]: induced IFNγ-plus TNF-producing cells
10 | RAIWYMWLGARFLEP [NS5222-236] |  |  | 0.607% | 0.333% | stimulated IFNγ, TNF, and IL-2 production | Th1 epitopes | increased responses | significant expansion | % CD4+ CD44+ T cells (ZIKV) IL-2+ [3, 6]: 0.21%; % CD4+ CD44+ T cells (ZIKV) TNFα+ [3, 6]: 0.571%; % CD4+ CD44+ T cells (DENV) IL-2+ [5, 7]: 0.643%; % CD4+ CD44+ T cells (DENV) INFγ+ [5, 7]: 0.82%; % CD4+ CD44+ T cells (DENV) INFγ+ TNFα+ [5, 7]: 1.451%; % CD4+ CD44+ T cells (DENV) TNFα+ [5, 7]: 0.8%; cross-reactive response by DENV2-primed CD4+ T cells [5]: elicited cross-reactive responses; cytokines produced by DENV2-primed CD4+ T cells on peptide stimulation [5]: induced cells producing IFNγ, TNF, and IL-2; CD4+ T cell response (IFNγ, IL-2, IFNγ plus TNF) ([4]; DENV2-primed mice, day 3 after ZIKV challenge): strong response
11 | SPNKYVVNSSTA [FSS/MR-NS4B210-220] | 195 SFC/10^6 CD8+ T cells | 49 SFC/10^6 CD8+ T cells |  |  |  |  |  |  | 
